This note sets out measurements from patent US8846654B2, “Therapeutic applications in the cardiovascular field of quinazolinedione derivatives” (Sanofi, priority 2009, dated 2014).

One assay has as its system PDE8. The experiment in a line: PDE8 enzymatic assay equivalent to that described for PDE7. It is filed as biochemical.
Settings: not given
An excerpt: 2) Measurement of the Inhibitory Activity of the Compounds in Accordance with the Invention with Regard to PDE8
Broadly, the IC50 is the point on the concentration scale where inhibition reaches its midpoint. On to `COc1ccc(Cn2c(=O)c3cc(OC(CF)CF)ccc3n(C3CCN(C=O)CC3)c2=O)cc1OC` [No. 11, 4-[3-(3,4-dimethoxybenzyl)-6-[2-fluoro-1-(fluoromethyl)ethoxy]-2,4-dioxo-3,4-dihydroquinazolin-1(2H)-yl]piperidine-1-carbaldehyde], for which the IC50 was 0.14 µM. The same measure, in the same setting: for `N#Cc1cc(Cn2c(=O)c3cc(OC(CF)CF)ccc3n(C3CCN(C=O)CC3)c2=O)ccc1-c1ccccc1` [No. 294, 4-({6-[2-fluoro-1-(fluoromethyl)ethoxy]-1-(1-formylpiperidin-4-yl)-2,4-dioxo-1,4-dihydroquinazolin-3(2H)-yl}methyl)biphenyl-2-carbonitrile] the value was 0.015 µM.

In a further assay the test system is Male C57B6 mice. The experiment in a line: Murine model of myocardial infarction resulting from an ischemia-reperfusion episode. The class given is in vivo. The conditions noted are these: 3 mg/kg intravenously 5 minutes before reperfusion; 45 min coronary occlusion, 24 hours of reperfusion; compared with the vehicle. The procedure: 3) Evaluation of the Compounds in Accordance with the Invention in a Murine Model of Myocardial Infarction Resulting from an Ischemia-Reperfusion Episode
Male C57B6 mice (23-26 g) are anaesthetized (ketamine 1 g/kg+xylazine 0.02 g/kg, IP) and placed under respiratory assistance before being subjected to a thoracotomy targeted at exposing the heart. Cardiac ischemia is then induced by the transient ligation of the left coronary artery. After 45 minutes of coronary occlusion, the ligature is removed in order to make possible reperfusion of the region rendered ischemic. After closing the thorax and restoring the pleural cavity, the animals are placed in a revival cage.
Test compounds Nos 11, 56, 233 and 309 are administered 5 minutes before reperfusion intravenously at a dose of 3 mg/kg and compared with the vehicle (7.5% Cremophor RH40+22.5% glycofurol in a physiological serum solution).
After 24 hours of cardiac reperfusion, the animals are again anaesthetized (ketamine 1 g/kg+xylazine 0.02 g/kg, IP) before intravenously receiving sodium nitroprusside (1 mg/ml at 1 ml/min for 4 minutes) in order to dilate the coronary vasculature. The left coronary artery is religatured and a solution of Evans blue (3%, 200 to 300 μl) is injected by carotid retroperfusion in order to determine the region at ventricular risk. The heart is then removed and immersed in a saturated KCl solution in order to stop it in diastole. Transverse sections of 1 mm are produced, incubated in triphenyltetrazolium chloride (1% in PBS) at 37° C. for 2 minutes and then placed in formaldehyde (4%) overnight. The tetrazolium salt makes it possible to visualize the viable region within the region at risk. The surface area of the infarction with respect to the region at risk is determined by image analysis.
As for `COc1ccc(Cn2c(=O)c3cc(OC(CF)CF)ccc3n(C3CCN(C=O)CC3)c2=O)cc1OC` [No. 11, 4-[3-(3,4-dimethoxybenzyl)-6-[2-fluoro-1-(fluoromethyl)ethoxy]-2,4-dioxo-3,4-dihydroquinazolin-1(2H)-yl]piperidine-1-carbaldehyde], the “reduction of the size of the infarction, expressed with respect to the region at risk” value (“reduction of the size of the infarction” below) came out at 43%. Consider `COc1cc(Cn2c(=O)c3cc(OC(CF)CF)ccc3n(C3CCN(C=O)CC3)c2=O)ccc1OC1CCCC1` [No. 56, 4-{3-[4-(cyclopentyloxy)-3-methoxybenzyl]-6-[2-fluoro-1-(fluoromethyl)ethoxy]-2,4-dioxo-3,4-dihydroquinazolin-1(2H)-yl}piperidine-1-carbaldehyde], for which the “reduction of the size of the infarction” value came to 33%.

For `COc1ccc(Cn2c(=O)c3cc(OC(CF)CF)c(F)cc3n(C3CCN(C=O)CC3)c2=O)cc1OC` [No. 233, 4-[3-(3,4-dimethoxybenzyl)-7-fluoro-6-[2-fluoro-1-(fluoromethyl)ethoxy]-2,4-dioxo-3,4-dihydroquinazolin-1(2H)-yl]piperidine-1-carbaldehyde], the “reduction of the size of the infarction” value worked out at 40%. As to `COc1cc(Cn2c(=O)c3cc(OC(CF)CF)c(F)cc3n(C3CCN(C=O)CC3)c2=O)ccc1OCC1CC1` [No. 309, 4-{3-[4-(cyclopropylmethoxy)-3-methoxybenzyl]-7-fluoro-6-[2-fluoro-1-(fluoromethyl)ethoxy]-2,4-dioxo-3,4-dihydroquinazolin-1(2H)-yl}piperidine-1-carbaldehyde], the “reduction of the size of the infarction” value was 32%.
